Columns and labels:
ERBB2 = biological target: T1, ERBB2 (Homo sapiens, UniProt P04626); test: KINOMEscan; type: binding; conditions: read-out: %Ctrl @ 1000 nM
T1 construct: purchased DiscoveRx KINOMEscan

BRK = biological target: T2, BRK (Homo sapiens, UniProt Q13882); test: KINOMEscan; type: binding; conditions: read-out: %Ctrl @ 1000 nM
T2 construct: purchased DiscoveRx KINOMEscan

ERBB4 = biological target: T3, ERBB4 (Homo sapiens, UniProt Q15303); test: KINOMEscan; type: binding; conditions: read-out: %Ctrl @ 1000 nM
T3 construct: purchased DiscoveRx KINOMEscan

MAP4K4 = biological target: T4, MAP4K4 (Homo sapiens, UniProt O95819); test: KINOMEscan; type: binding; conditions: read-out: %Ctrl @ 1000 nM
T4 construct: purchased DiscoveRx KINOMEscan

LTK = biological target: T5, LTK (Homo sapiens, UniProt P29376); test: KINOMEscan; type: binding; conditions: read-out: %Ctrl @ 1000 nM
T5 construct: purchased DiscoveRx KINOMEscan

[1] = biological target: T6, JAK1(JH1domain-catalytic) (Homo sapiens, UniProt P23458); test: KINOMEscan; type: binding; conditions: read-out: %Ctrl @ 1000 nM
T6 construct: JAK1(JH1domain-catalytic); purchased DiscoveRx KINOMEscan

BIKE = biological target: T7, BIKE (Homo sapiens, UniProt Q9NSY1); test: KINOMEscan; type: binding; conditions: read-out: %Ctrl @ 1000 nM
T7 construct: purchased DiscoveRx KINOMEscan

ARK5 = biological target: T8, ARK5 (Homo sapiens, UniProt O60285); test: KINOMEscan; type: binding; conditions: read-out: %Ctrl @ 1000 nM
T8 construct: purchased DiscoveRx KINOMEscan

BUB1 = biological target: T9, BUB1 (Homo sapiens, UniProt O43683); test: KINOMEscan; type: binding; conditions: read-out: %Ctrl @ 1000 nM
T9 construct: purchased DiscoveRx KINOMEscan

NIM1 = biological target: T10, NIM1 (Homo sapiens, UniProt Q8IY84); test: KINOMEscan; type: binding; conditions: read-out: %Ctrl @ 1000 nM
T10 construct: purchased DiscoveRx KINOMEscan

[2] = biological target: T11, ABL1(Q252H)-phosphorylated (Homo sapiens, UniProt P00519, Q252H); test: KINOMEscan; type: binding; conditions: read-out: %Ctrl @ 1000 nM
T11 construct: purchased DiscoveRx (KINOMEscan service)

[3] = Caco2 drug permeability assay; type: in vitro ADME; conditions: human, Caco-2, pH 7.2
Procedure: Caco-2 cells (purchased from DSMZ Braunschweig, Germany) were seeded at a density of 4.5 × 10^4 cell per well on 24-well insert plates, 0.4 μm pore size, and grown for 15 days in DMEM medium supplemented with 10% fetal bovine serum, 1% GlutaMAX (100×, GIBCO), 100 μg/mL penicillin, 100 μg/mL streptomycin (GIBCO), and 1% nonessential amino acids (100×). Cells were maintained at 37 °C in a humified 5% CO2 atmosphere. Medium was changed every second to third day. Before running the permeation assay, the culture medium was replaced by an FCS-free Hepes-carbonate transport buffer (pH 7.2). For assessment of monolayer integrity, the transepithelial electrical resistance (TEER) was measured. Test compounds were dissolved in DMSO and added either to the apical or basolateral compartment in a final concentration of 2 μM. Before and after incubation at 37 °C, samples were taken from both compartments. Analysis of compound content was performed following precipitation with methanol and LC/MS/MS analysis. Permeability (Papp) was calculated in the apical to basolateral (A → B) and basolateral to apical (B → A) directions. The apparent permeability was calculated using following equation: [drawing 3] where Vr = volume of medium in the receiver chamber, P0 = measured peak area of the test drug in the donor chamber at t = 0, S = surface area of the monolayer, P2 = measured peak area of the test drug in the acceptor chamber after incubation for 2 h, and t = incubation time. The efflux ratio basolateral (B) to apical (A) was calculated by dividing Papp (B–A) by Papp (A–B). In addition, the compound recovery was calculated. Reference compounds were analyzed in parallel as assay controls. All samples were analyzed by LC/MS/MS.

CAMKK2 = biological target: T12, CAMKK2 (Homo sapiens, UniProt Q96RR4); test: KINOMEscan; type: binding; conditions: read-out: %Ctrl @ 1000 nM
T12 construct: purchased DiscoveRx KINOMEscan

DAPK3 = biological target: T13, DAPK3 (Homo sapiens, UniProt O43293); test: KINOMEscan; type: binding; conditions: read-out: %Ctrl @ 1000 nM
T13 construct: purchased DiscoveRx KINOMEscan

PIP5K1C = biological target: T14, PIP5K1C (Homo sapiens, UniProt O60331); test: KINOMEscan; type: binding; conditions: read-out: %Ctrl @ 1000 nM
T14 construct: purchased DiscoveRx KINOMEscan

PDPK1 = biological target: T15, PDPK1 (Homo sapiens, UniProt O15530); test: KINOMEscan; type: binding; conditions: read-out: %Ctrl @ 1000 nM
T15 construct: purchased DiscoveRx KINOMEscan

BTK = biological target: T16, BTK (Homo sapiens, UniProt Q06187); test: KINOMEscan; type: binding; conditions: read-out: %Ctrl @ 1000 nM
T16 construct: purchased DiscoveRx KINOMEscan

INSR = biological target: T17, INSR (Homo sapiens, UniProt P06213); test: KINOMEscan; type: binding; conditions: read-out: %Ctrl @ 1000 nM
T17 construct: purchased DiscoveRx KINOMEscan

MEK2 = biological target: T18, MEK2 (Homo sapiens, UniProt P36507); test: KINOMEscan; type: binding; conditions: read-out: %Ctrl @ 1000 nM
T18 construct: purchased DiscoveRx KINOMEscan

MINK = biological target: T19, MINK (Homo sapiens, UniProt Q8N4C8); test: KINOMEscan; type: binding; conditions: read-out: %Ctrl @ 1000 nM
T19 construct: purchased DiscoveRx KINOMEscan

[4] = biological target: T20, ABL1(F317L)-nonphosphorylated (Homo sapiens, UniProt P00519, F317L); test: KINOMEscan; type: binding; conditions: read-out: %Ctrl @ 1000 nM
T20 construct: purchased DiscoveRx (KINOMEscan service)

CIT = biological target: T21, CIT (Homo sapiens, UniProt O14578); test: KINOMEscan; type: binding; conditions: read-out: %Ctrl @ 1000 nM
T21 construct: purchased DiscoveRx KINOMEscan

EGFR(L861Q) = biological target: T22, EGFR(L861Q) (Homo sapiens, UniProt P00533, L861Q); test: KINOMEscan; type: binding; conditions: read-out: %Ctrl @ 1000 nM
T22 construct: purchased DiscoveRx KINOMEscan

LKB1 = biological target: T23, LKB1 (Homo sapiens, UniProt Q15831); test: KINOMEscan; type: binding; conditions: read-out: %Ctrl @ 1000 nM
T23 construct: purchased DiscoveRx KINOMEscan

LIMK2 = biological target: T24, LIMK2 (Homo sapiens, UniProt P53671); test: KINOMEscan; type: binding; conditions: read-out: %Ctrl @ 1000 nM
T24 construct: purchased DiscoveRx KINOMEscan

LRRK2(G2019S) = biological target: T25, LRRK2(G2019S) (Homo sapiens, UniProt Q5S007, G2019S); test: KINOMEscan; type: binding; conditions: read-out: %Ctrl @ 1000 nM
T25 construct: purchased DiscoveRx KINOMEscan

TRKB = biological target: T26, TRKB (Homo sapiens, UniProt Q16620); test: KINOMEscan; type: binding; conditions: read-out: %Ctrl @ 1000 nM
T26 construct: purchased DiscoveRx KINOMEscan

MST3 = biological target: T27, MST3 (Homo sapiens, UniProt Q9Y6E0); test: KINOMEscan; type: binding; conditions: read-out: %Ctrl @ 1000 nM
T27 construct: purchased DiscoveRx KINOMEscan

AAK1 = biological target: T28, AAK1 (Homo sapiens, UniProt Q2M2I8); test: KINOMEscan; type: binding; conditions: read-out: %Ctrl @ 1000 nM
T28 construct: purchased DiscoveRx (KINOMEscan service)

NEK9 = biological target: T29, NEK9 (Homo sapiens, UniProt Q8TD19); test: KINOMEscan; type: binding; conditions: read-out: %Ctrl @ 1000 nM
T29 construct: purchased DiscoveRx KINOMEscan

CHEK2 = biological target: T30, CHEK2 (Homo sapiens, UniProt O96017); test: KINOMEscan; type: binding; conditions: read-out: %Ctrl @ 1000 nM
T30 construct: purchased DiscoveRx KINOMEscan

DMPK = biological target: T31, DMPK (Homo sapiens, UniProt Q09013); test: KINOMEscan; type: binding; conditions: read-out: %Ctrl @ 1000 nM
T31 construct: purchased DiscoveRx KINOMEscan

MYLK = biological target: T32, MYLK (Homo sapiens, UniProt Q15746); test: KINOMEscan; type: binding; conditions: read-out: %Ctrl @ 1000 nM
T32 construct: purchased DiscoveRx KINOMEscan

T7 sequence (Q9NSY1 whole entry): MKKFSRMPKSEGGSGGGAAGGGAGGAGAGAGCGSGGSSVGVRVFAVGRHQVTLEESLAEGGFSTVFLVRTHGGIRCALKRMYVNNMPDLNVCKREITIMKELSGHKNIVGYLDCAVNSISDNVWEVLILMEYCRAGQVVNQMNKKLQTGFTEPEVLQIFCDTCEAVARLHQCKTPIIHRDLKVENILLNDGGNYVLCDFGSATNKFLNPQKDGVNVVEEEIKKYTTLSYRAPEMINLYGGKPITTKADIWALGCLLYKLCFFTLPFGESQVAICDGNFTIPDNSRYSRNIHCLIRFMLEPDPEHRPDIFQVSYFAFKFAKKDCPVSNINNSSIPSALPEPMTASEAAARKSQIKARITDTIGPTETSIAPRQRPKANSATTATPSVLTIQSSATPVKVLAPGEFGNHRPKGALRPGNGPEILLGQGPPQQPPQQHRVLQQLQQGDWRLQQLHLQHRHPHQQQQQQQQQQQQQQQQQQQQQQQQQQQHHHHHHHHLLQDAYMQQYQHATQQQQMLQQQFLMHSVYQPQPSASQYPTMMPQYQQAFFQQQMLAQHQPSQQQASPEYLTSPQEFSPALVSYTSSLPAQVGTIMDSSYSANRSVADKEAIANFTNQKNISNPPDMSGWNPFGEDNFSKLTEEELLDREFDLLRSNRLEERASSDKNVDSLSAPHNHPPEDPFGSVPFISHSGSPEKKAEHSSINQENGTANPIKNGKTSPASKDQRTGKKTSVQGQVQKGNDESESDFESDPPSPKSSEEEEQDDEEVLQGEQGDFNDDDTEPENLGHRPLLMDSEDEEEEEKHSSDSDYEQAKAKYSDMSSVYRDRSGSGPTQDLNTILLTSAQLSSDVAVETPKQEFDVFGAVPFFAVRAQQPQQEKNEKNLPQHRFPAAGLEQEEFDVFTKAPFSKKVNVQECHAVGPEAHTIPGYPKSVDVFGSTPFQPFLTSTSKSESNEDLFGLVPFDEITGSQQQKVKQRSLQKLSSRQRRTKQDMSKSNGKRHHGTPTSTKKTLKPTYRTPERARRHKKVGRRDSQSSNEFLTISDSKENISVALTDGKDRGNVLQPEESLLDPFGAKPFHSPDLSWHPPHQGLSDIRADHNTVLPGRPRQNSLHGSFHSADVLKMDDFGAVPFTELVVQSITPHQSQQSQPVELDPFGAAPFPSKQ
T19 sequence (Q8N4C8 whole entry): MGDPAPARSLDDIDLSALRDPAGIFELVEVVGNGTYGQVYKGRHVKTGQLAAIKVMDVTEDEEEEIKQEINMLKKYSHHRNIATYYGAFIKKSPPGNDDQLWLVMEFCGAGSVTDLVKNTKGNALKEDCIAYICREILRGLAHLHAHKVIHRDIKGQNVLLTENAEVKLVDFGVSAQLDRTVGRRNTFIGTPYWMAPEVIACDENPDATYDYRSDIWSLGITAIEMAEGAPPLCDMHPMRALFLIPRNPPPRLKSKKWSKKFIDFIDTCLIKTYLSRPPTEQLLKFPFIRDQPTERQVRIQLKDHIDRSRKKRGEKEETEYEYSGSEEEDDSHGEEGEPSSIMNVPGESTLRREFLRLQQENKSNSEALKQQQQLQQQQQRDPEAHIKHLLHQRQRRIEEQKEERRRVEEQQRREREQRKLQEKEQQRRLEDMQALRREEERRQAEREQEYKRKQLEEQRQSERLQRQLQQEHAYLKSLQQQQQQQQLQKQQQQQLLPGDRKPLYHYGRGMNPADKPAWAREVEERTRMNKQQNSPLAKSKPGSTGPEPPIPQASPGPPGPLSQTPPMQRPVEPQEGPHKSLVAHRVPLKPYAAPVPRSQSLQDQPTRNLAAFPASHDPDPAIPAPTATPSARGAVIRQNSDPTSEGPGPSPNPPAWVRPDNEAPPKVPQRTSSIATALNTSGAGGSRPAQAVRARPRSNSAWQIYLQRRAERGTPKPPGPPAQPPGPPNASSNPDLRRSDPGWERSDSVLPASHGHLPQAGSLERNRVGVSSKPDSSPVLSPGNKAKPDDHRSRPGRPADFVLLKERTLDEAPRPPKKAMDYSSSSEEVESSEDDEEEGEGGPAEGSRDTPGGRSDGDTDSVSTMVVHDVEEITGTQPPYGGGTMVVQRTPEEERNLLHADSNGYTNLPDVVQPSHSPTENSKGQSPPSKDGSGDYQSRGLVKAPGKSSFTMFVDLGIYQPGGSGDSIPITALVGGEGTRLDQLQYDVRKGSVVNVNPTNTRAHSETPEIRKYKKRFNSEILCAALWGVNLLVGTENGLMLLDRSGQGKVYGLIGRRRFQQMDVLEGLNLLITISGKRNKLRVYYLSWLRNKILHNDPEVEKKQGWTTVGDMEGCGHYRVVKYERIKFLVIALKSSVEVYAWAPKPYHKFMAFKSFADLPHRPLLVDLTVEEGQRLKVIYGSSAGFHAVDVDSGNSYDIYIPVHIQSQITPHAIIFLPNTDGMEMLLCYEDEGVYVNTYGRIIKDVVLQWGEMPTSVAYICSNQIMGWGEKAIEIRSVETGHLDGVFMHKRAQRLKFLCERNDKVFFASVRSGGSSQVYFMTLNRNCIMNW
T13 sequence (O43293 whole entry): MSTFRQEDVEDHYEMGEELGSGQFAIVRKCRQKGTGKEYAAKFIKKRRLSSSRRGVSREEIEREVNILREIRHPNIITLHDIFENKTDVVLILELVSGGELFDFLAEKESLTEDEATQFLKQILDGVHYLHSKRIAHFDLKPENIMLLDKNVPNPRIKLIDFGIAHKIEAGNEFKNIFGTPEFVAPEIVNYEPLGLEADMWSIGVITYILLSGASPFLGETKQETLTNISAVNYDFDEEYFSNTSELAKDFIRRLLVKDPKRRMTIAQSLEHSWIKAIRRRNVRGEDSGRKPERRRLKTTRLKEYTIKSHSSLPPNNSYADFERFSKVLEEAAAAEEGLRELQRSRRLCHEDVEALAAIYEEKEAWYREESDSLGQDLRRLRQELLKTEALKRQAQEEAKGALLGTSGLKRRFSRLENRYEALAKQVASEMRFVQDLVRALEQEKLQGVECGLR
T8 sequence (O60285 whole entry): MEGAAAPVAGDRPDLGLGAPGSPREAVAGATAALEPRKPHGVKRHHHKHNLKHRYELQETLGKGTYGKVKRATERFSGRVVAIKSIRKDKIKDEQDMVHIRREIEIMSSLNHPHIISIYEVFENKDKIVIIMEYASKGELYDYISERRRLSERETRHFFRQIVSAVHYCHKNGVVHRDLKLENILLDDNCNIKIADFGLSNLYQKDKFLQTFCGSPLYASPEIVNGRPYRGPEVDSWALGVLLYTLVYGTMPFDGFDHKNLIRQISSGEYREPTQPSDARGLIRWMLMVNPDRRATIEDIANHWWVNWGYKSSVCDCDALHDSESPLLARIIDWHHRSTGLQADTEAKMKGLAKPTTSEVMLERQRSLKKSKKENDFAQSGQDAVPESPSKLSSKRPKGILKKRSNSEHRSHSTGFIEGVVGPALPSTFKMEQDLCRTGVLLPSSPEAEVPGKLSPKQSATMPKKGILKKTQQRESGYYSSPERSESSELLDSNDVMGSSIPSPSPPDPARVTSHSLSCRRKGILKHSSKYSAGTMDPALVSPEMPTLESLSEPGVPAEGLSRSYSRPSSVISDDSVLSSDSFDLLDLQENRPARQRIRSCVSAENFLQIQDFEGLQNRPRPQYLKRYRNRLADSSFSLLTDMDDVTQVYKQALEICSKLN
T5 sequence (P29376 17-864): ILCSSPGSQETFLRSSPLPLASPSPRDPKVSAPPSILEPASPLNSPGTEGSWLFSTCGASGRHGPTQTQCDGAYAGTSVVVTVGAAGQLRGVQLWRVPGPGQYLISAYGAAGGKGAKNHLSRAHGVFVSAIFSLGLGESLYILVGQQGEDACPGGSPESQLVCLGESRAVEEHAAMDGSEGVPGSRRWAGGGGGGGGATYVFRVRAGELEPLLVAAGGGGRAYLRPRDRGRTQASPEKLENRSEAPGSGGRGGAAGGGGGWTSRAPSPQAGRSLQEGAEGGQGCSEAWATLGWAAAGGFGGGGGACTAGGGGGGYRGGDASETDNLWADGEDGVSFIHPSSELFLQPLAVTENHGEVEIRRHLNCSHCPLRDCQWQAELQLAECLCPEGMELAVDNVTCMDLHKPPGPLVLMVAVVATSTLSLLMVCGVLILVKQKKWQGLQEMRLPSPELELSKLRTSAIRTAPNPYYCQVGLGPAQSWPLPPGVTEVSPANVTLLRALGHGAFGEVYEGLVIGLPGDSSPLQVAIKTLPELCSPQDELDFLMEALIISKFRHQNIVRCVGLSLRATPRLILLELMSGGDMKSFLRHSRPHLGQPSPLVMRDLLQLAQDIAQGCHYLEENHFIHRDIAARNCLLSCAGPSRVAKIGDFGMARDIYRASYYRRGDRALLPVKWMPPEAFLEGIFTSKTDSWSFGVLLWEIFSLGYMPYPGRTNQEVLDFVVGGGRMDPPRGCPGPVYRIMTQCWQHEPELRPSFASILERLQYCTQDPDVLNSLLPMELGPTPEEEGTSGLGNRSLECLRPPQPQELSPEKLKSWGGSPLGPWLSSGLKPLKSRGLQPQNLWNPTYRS
T12 sequence (Q96RR4 whole entry): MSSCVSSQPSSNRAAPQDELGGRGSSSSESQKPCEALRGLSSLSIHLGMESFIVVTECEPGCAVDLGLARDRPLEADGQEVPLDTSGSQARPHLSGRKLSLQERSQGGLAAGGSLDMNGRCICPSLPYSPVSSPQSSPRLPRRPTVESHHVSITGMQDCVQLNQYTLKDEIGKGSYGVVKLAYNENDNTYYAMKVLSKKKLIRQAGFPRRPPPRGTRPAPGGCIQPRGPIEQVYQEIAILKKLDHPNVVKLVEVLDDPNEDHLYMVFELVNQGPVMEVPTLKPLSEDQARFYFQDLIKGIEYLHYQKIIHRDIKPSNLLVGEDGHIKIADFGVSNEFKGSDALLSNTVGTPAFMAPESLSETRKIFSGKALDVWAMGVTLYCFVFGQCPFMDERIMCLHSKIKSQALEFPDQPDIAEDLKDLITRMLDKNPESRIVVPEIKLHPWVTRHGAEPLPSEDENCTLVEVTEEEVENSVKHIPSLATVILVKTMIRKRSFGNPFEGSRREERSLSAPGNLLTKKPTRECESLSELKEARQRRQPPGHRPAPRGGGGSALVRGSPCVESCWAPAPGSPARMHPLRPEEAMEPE

CCN(C(=O)CO)[C@H]1CN(/C(=N\C#N)Nc2cccc(OC(F)F)c2)N=C1c1ccc(Cl)c(Cl)c1 [(S)-4] gave a remaining binding at 1 µM (ERBB2) of 87%, a remaining binding at 1 µM (BRK) of 73% and a remaining binding at 1 µM (ERBB4) of 93%. The remaining binding at 1 µM (MAP4K4) was 100%, the remaining binding at 1 µM (LTK) was 65% and the remaining binding at 1 µM [1] was 85%. The remaining binding at 1 µM (BIKE) was 80%, the remaining binding at 1 µM (ARK5) was 100% and the remaining binding at 1 µM (BUB1) was 100%. The remaining binding at 1 µM (NIM1) was 100%, the remaining binding at 1 µM [2] was 100% and the Papp A→B at 2 h, 2 µM [3] was 3.4 ×10⁻⁶ cm/s. For the same molecule, the remaining binding at 1 µM (CAMKK2) was 84%, the remaining binding at 1 µM (DAPK3) was 94% and the remaining binding at 1 µM (PIP5K1C) was 86%. It also gave a remaining binding at 1 µM (PDPK1) of 59%, a remaining binding at 1 µM (BTK) of 79% and a remaining binding at 1 µM (INSR) of 78%. It also gave a remaining binding at 1 µM (MEK2) of 90%, a remaining binding at 1 µM (MINK) of 100% and a remaining binding at 1 µM [4] of 100%. The remaining binding at 1 µM (CIT) was 63%, the remaining binding at 1 µM (EGFR(L861Q)) was 85% and the remaining binding at 1 µM (LKB1) was 83%. The remaining binding at 1 µM (LIMK2) was 62%, the remaining binding at 1 µM (LRRK2(G2019S)) was 98% and the remaining binding at 1 µM (TRKB) was 100%. The remaining binding at 1 µM (MST3) was 100%, the remaining binding at 1 µM (AAK1) was 78% and the remaining binding at 1 µM (NEK9) was 100%. The remaining binding at 1 µM (CHEK2) was 99%, the remaining binding at 1 µM (DMPK) was 100% and the remaining binding at 1 µM (MYLK) was 86%.

Source: paper PMC4917279 (Journal of Medicinal Chemistry, 2016)
